According to PubChem BioAssay AID248 (DTP/NCI, 2004):
“And” between values parts separate entries of the source, which are not always exact repeats. Equal entries are not always repeated. Inconclusive results and toxic doses are left out. No stated cut-off is given here; in the data, active means T/C of 150% or more; inactive means T/C below 125%.

Test system: L1210 leukemia ip in BDF1 mice, survival T/C
Test: NCI In Vivo Anticancer Drug Screen. Data for tumor model L1210 Leukemia (intraperitoneal) in B6D2F1 (BDF1) mice
Settings: endpoint: mean survival time, higher = longer survival
Summary of the method: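 Value reflects the ratio of survival in compound-treated mice to survival in vehicle-treated controls, with both groups carrying the same transplanted tumor.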

[1] = dose: 100.0 mg/kg/injection, schedule: Q01DX001 (ip), vehicle: saline
[2] = dose: 200.0 mg/kg/injection, schedule: Q01DX001 (ip), vehicle: saline
[3] = dose: 400.0 mg/kg/injection, schedule: Q01DX001 (ip), vehicle: saline
[4] = dose: 25.0 mg/kg/injection, schedule: Q01DX009 (ip), vehicle: saline with Tween-80
[5] = dose: 50.0 mg/kg/injection, schedule: Q01DX009 (ip), vehicle: saline with Tween-80
[6] = dose: 100.0 mg/kg/injection, schedule: Q01DX009 (ip), vehicle: saline with Tween-80
[7] = dose: 100.0 mg/kg/injection, schedule: Q04DX003 (ip), vehicle: saline with Tween-80
[8] = dose: 200.0 mg/kg/injection, schedule: Q04DX003 (ip), vehicle: saline with Tween-80
[9] = dose: 100.0 mg/kg/injection, schedule: Q01DX001 (ip), vehicle: carboxymethylcellulose (CMC)
[10] = dose: 200.0 mg/kg/injection, schedule: Q01DX001 (ip), vehicle: carboxymethylcellulose (CMC)
[11] = dose: 400.0 mg/kg/injection, schedule: Q01DX001 (ip), vehicle: carboxymethylcellulose (CMC)
[12] = dose: 400.0 mg/kg/injection, schedule: Q04DX003 (ip), vehicle: saline with Tween-80
[13] = dose: 100.0 mg/kg/injection, schedule: Q04DX002 (ip), vehicle: Klucel (hydroxypropylcellulose) (HPC)
[14] = dose: 200.0 mg/kg/injection, schedule: Q04DX002 (ip), vehicle: Klucel (hydroxypropylcellulose) (HPC)
[15] = dose: 50.0 mg/kg/injection, schedule: Q01DX001 (ip), vehicle: saline
[16] = dose: 12.5 mg/kg/injection, schedule: Q01DX009 (ip), vehicle: Klucel (hydroxypropylcellulose) (HPC)
[17] = dose: 100.0 mg/kg/injection, schedule: Q04DX003 (ip), vehicle: Klucel (hydroxypropylcellulose) (HPC)
[18] = dose: 200.0 mg/kg/injection, schedule: Q04DX003 (ip), vehicle: Klucel (hydroxypropylcellulose) (HPC)

Measured: T/C

NC(=O)COc1ccc(F)cc1F
inactive: dose: 100.0 mg/kg/injection, schedule: Q04DX002 (ip), vehicle: saline with Tween-80 101 % of control | dose: 200.0 mg/kg/injection, schedule: Q04DX002 (ip), vehicle: saline with Tween-80 97 % of control | dose: 400.0 mg/kg/injection, schedule: Q04DX002 (ip), vehicle: saline with Tween-80 93 % of control

CCC1COP(=O)(c2ccccc2)OC1 (configuration not stated)
inactive: [1] 103 % of control | [2] 103 % of control | [3] 100 % of control

O=C(C[P+](c1ccccc1)(c1ccccc1)c1ccccc1)Nc1ccccc1
inactive: dose: 10.0 mg/kg/injection, schedule: Q01DX009 (ip), vehicle: Klucel (hydroxypropylcellulose) (HPC) 100 % of control | dose: 20.0 mg/kg/injection, schedule: Q01DX009 (ip), vehicle: Klucel (hydroxypropylcellulose) (HPC) 108 % of control | dose: 40.0 mg/kg/injection, schedule: Q01DX009 (ip), vehicle: Klucel (hydroxypropylcellulose) (HPC) 100 % of control | dose: 75.0 mg/kg/injection, schedule: Q01DX009 (ip), vehicle: Klucel (hydroxypropylcellulose) (HPC) 107 % of control

COc1ccc(/C=C2\SC(=O)NC2=O)cc1
inactive: [4] 91 % of control | [5] 104 % of control | [6] 100 % of control

Cc1ccc(NC(=O)CS)cc1
inactive: [7] 100 % of control | [8] 93 % of control

CC(=O)NC1C(Oc2ccccc2)OC(C(O)CO)C1O (configuration not stated)
inactive: dose: 100.0 mg/kg/injection, schedule: Q01DX001 (sc), vehicle: saline 108 % of control | dose: 200.0 mg/kg/injection, schedule: Q01DX001 (sc), vehicle: saline 103 % of control | dose: 400.0 mg/kg/injection, schedule: Q01DX001 (sc), vehicle: saline 108 % of control

COc1ccc(C(C)=O)cc1CCCOC(C)=O
inactive: [9] 95 % of control | [10] 106 % of control | [11] 101 % of control

OC(C1CO1)(C(F)(F)F)C(F)(F)F (configuration not stated)
inactive: dose: 100.0 mg/kg/injection, schedule: Q01DX009 (ip), vehicle: saline 98 % of control | [7] 92 % of control | dose: 200.0 mg/kg/injection, schedule: Q01DX009 (ip), vehicle: saline 106 % of control | [8] 91 % of control | [12] 97 % of control

Cn1c(N)nc2nc[nH]c2c1=O
inactive: dose: 18.7 mg/kg/injection, schedule: Q01DX Z (ip), vehicle: methylcellulose (MC) 95 % of control | dose: 37.5 mg/kg/injection, schedule: Q01DX Z (ip), vehicle: methylcellulose (MC) 89 % of control

O=C1OC(=O)C2C1C1CCC2(C2OCCO2)O1 (configuration not stated)
inactive: [13] 93 % of control | [14] 101 % of control | dose: 400.0 mg/kg/injection, schedule: Q04DX002 (ip), vehicle: Klucel (hydroxypropylcellulose) (HPC) 101 % of control

C=CC1CN2CCC1CC2C(=O)c1ccnc2ccc(OC)cc12 (configuration not stated)
inactive: [15] 98 % of control | [1] 102 % of control | [2] 95 % of control | [3] 101 % of control

COc1ccc(C2(OC)Oc3ccccc3C(=O)C2(O)O)cc1 (configuration not stated)
inactive: [15] 101 % of control | [1] 104 % of control | [2] 101 % of control | [3] 104 % of control

CN1CCC2(CC1)C(=O)N(Cc1ccccc1)C(=O)C2c1ccccc1 (configuration not stated)
inactive: dose: 25.0 mg/kg/injection, schedule: Q04DX002 (ip), vehicle: saline 108 % of control | [13] 93 % of control | dose: 100.0 mg/kg/injection, schedule: Q04DX002 (ip), vehicle: saline 104 % of control and 118 % of control | [14] 86 % of control

C[As](C)(=S)[As](C)(C)=S
inactive: [16] 97 % of control | dose: 12.5 mg/kg/injection, schedule: Q04DX002 (ip), vehicle: Klucel (hydroxypropylcellulose) (HPC) 107 % of control and 88 % of control | dose: 25.0 mg/kg/injection, schedule: Q01DX009 (ip), vehicle: Klucel (hydroxypropylcellulose) (HPC) 97 % of control | dose: 25.0 mg/kg/injection, schedule: Q04DX002 (ip), vehicle: Klucel (hydroxypropylcellulose) (HPC) 96 % of control and 91 % of control | dose: 50.0 mg/kg/injection, schedule: Q01DX009 (ip), vehicle: Klucel (hydroxypropylcellulose) (HPC) 87 % of control

CC(C)=C(CSC#N)S(=O)(=O)c1ccc(C)cc1
inactive: dose: 3.12 mg/kg/injection, schedule: Q01DX009 (ip), vehicle: Klucel (hydroxypropylcellulose) (HPC) 103 % of control | dose: 6.25 mg/kg/injection, schedule: Q01DX009 (ip), vehicle: Klucel (hydroxypropylcellulose) (HPC) 101 % of control | [16] 97 % of control

CCCCCC(Oc1ccc(Cl)cc1)C(=O)O (configuration not stated)
inactive: [17] 104 % of control | [18] 98 % of control

Oc1c(Cl)cc(Cl)cc1C1N(Cc2ccc(N(CCCl)CCCl)cc2Cl)CCCN1Cc1ccc(N(CCCl)CCCl)cc1Cl
inactive: dose: 50.0 mg/kg/injection, schedule: Q01DX001 (ip), vehicle: carboxymethylcellulose (CMC) 109 % of control | [9] 105 % of control | [10] 103 % of control | [11] 103 % of control

Nc1ccc2c(c1)S(=O)(=O)c1cc(O)ccc1O2
inactive: dose: 100.0 mg/kg/injection, schedule: Q01DX009 (ip), vehicle: Klucel (hydroxypropylcellulose) (HPC) 98 % of control | [17] 102 % of control | dose: 200.0 mg/kg/injection, schedule: Q01DX009 (ip), vehicle: Klucel (hydroxypropylcellulose) (HPC) 95 % of control | [18] 97 % of control | dose: 400.0 mg/kg/injection, schedule: Q01DX009 (ip), vehicle: Klucel (hydroxypropylcellulose) (HPC) 96 % of control | dose: 400.0 mg/kg/injection, schedule: Q04DX003 (ip), vehicle: Klucel (hydroxypropylcellulose) (HPC) 102 % of control

NC(=O)NC(=O)c1ccccn1
inactive: dose: 75.0 mg/kg/injection, schedule: Q01DX001 (ip), vehicle: saline 106 % of control | dose: 150.0 mg/kg/injection, schedule: Q01DX001 (ip), vehicle: saline 97 % of control | dose: 300.0 mg/kg/injection, schedule: Q01DX001 (ip), vehicle: saline 100 % of control

CN(CC(C)(C)C(O)c1ccccc1)C(=O)c1ccccc1 (configuration not stated)
inactive: dose: 100.0 mg/kg/injection, schedule: Q04DX003 (ip), vehicle: saline 102 % of control | dose: 200.0 mg/kg/injection, schedule: Q04DX003 (ip), vehicle: saline 100 % of control | dose: 400.0 mg/kg/injection, schedule: Q04DX003 (ip), vehicle: saline 96 % of control

CN1CCCN(C)CC1
inactive: [4] 104 % of control | [5] 97 % of control | [6] 103 % of control | [7] 95 % of control | dose: 200.0 mg/kg/injection, schedule: Q01DX009 (ip), vehicle: saline with Tween-80 91 % of control | [8] 100 % of control | [12] 102 % of control

O=C(O)C1=C(C(=O)O)C2CCCC3C4CCCCC4N(N1)C23 (configuration not stated)
inactive: dose: 75.0 mg/kg/injection, schedule: Q01DX001 (ip), vehicle: acetone 117 % of control | dose: 150.0 mg/kg/injection, schedule: Q01DX001 (ip), vehicle: acetone 104 % of control | dose: 300.0 mg/kg/injection, schedule: Q01DX001 (ip), vehicle: acetone 118 % of control

CC(=O)Nc1ccc(Cc2ccc(N=Cc3ccccc3)cc2)cc1
inactive: [1] 101 % of control | [2] 104 % of control | [3] 98 % of control
